# Biological target: human P2X3 receptor (Homo sapiens (Human), UniProt P56373)
# Assay: Evaluation of human P2X3 receptor inhibitory activity (Fluo-3 calcium fluorescence, FDSS 3000, ATP stimulation);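 note: stimulus was 50 nM ATP with fluorescence followed for 3 min, and the response per well was peak post-ATP fluorescence divided by the reading at measurement start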
# Assay type: cell-based
# Settings: human P2X3 receptor, Test Example 1
# human P2X3 receptor, sequence (P56373 whole entry): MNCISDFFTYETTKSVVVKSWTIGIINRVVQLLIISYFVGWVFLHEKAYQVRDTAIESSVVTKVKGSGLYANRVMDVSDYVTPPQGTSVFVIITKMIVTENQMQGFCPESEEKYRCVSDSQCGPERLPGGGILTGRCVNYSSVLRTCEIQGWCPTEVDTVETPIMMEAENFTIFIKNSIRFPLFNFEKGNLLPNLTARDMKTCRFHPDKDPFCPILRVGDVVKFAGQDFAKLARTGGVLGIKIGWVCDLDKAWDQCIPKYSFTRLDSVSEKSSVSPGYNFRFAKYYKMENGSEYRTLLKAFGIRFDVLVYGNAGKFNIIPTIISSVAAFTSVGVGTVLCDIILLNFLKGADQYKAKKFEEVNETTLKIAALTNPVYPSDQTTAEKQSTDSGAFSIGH
row,SMILES,IC50 [µM]
1,"Cc1cc(/N=c2\[nH]c(=O)n(C[C@H](O)C(=O)O)c(=O)n2Cc2ccc(Cl)cc2)ccc1OC(C)C [Compound I-0852, (S)-1-(4-chlorobenzyl)-6-(3-mehyl-4-isopropoxyphenylimino)-3-(2-hydroxycarbonyl-2-hydroxyethyl)-1,3,5-triazinane-2,4-dion]",0.038
2,CC[C@@H](C)Oc1ccc(/N=c2\[nH]c(=O)n(C[C@H](C)C(=O)O)c(=O)n2Cc2ccc(C)cc2)cc1C [Compound I-0853],0.013
3,CC[C@@H](C)Oc1ccc(/N=c2\[nH]c(=O)n(C[C@H](C)C(=O)O)c(=O)n2Cc2ccc(C)cc2)cc1 [Compound I-0854],0.032
4,CCOC(=O)C(F)(F)Cn1c(=O)[nH]/c(=N\c2ccc(OC(C)C)c(C)c2)n(Cc2ccc(C)cc2)c1=O [Compound I-0855],0.01
5,CCOC(=O)C(F)(F)Cn1c(=O)[nH]/c(=N\c2ccc(OCC)c(Cl)c2)n(Cc2ccc(C)cc2)c1=O [Compound I-0856],0.012
6,Cc1ccc(Cn2c(=O)n(CC(F)(F)C(=O)O)c(=O)[nH]/c2=N\c2ccc(OC(C)C)c(C)c2)cc1 [Compound I-0857],0.019
7,CCOc1ccc(/N=c2\[nH]c(=O)n(CC(F)(F)C(=O)O)c(=O)n2Cc2ccc(C)cc2)cc1Cl [Compound I-0858],0.022
8,CCCOc1ccc(/N=c2\[nH]c(=O)n(CC(F)(F)C(=O)OCC)c(=O)n2Cc2ccc(C)cc2)cc1 [Compound I-0859],0.017
9,COC(=O)[C@@H](C)Cn1c(=O)[nH]/c(=N\c2ccc(CC(C)C)cc2)n(Cc2ccc(C)cc2)c1=O [Compound I-0860],0.062
10,CCCOc1ccc(/N=c2\[nH]c(=O)n(CCCC(=O)OCC)c(=O)n2Cc2ccc(C)cc2)cc1Cl [Compound I-0861],0.019
11,CCOC(=O)CCCn1c(=O)[nH]/c(=N\c2ccc(OCC)c(Cl)c2)n(Cc2ccc(C)cc2)c1=O [Compound I-0862],0.01
12,Cc1ccc2cc(/N=c3\[nH]c(=O)n(C[C@H](C)C(=O)O)c(=O)n3Cc3ccc(Cl)cc3)ccc2n1 [Compound I-0864],0.035
13,COC(=O)[C@@H](C)Cn1c(=O)[nH]/c(=N\c2ccc(OC(C)C)c(C)c2)n(Cc2ccc(Br)cc2)c1=O [Compound I-0865],0.017
14,"CCOC(=O)CCn1c(=O)[nH]/c(=N\c2ccc(OC(C)C)c(Cl)c2)n(Cc2ccc(C)cc2)c1=O [Compound I-0866, 6-(3-chloro-4-isopropoxyphenylamino)-3-(2,3-ethoxycarbonylethyl)-1-(4-methylbenzyl)-1,3,5-triazinane-2,4-dion]",0.002
15,CCOC(=O)CCn1c(=O)[nH]/c(=N\c2ccc(OCC)c(Cl)c2)n(Cc2ccc(C)cc2)c1=O [Compound I-0867],0.006
16,Cc1cc(/N=c2\[nH]c(=O)n(C[C@H](C)C(=O)O)c(=O)n2Cc2ccc(Br)cc2)ccc1OC(C)C [Compound I-0868],0.023
17,CNC(=O)[C@H](CCO)n1c(=O)[nH]/c(=N\c2ccc(OC(C)C)c(C)c2)n(Cc2ccc(Cl)cc2)c1=O [Compound I-0869],0.574
18,CNC(=O)[C@@H](CCO)n1c(=O)[nH]/c(=N\c2ccc(OC(C)C)c(C)c2)n(Cc2ccc(Cl)cc2)c1=O [Compound I-0870],0.53
19,CCCOc1ccc(/N=c2\[nH]c(=O)n(CC(F)(F)C(=O)O)c(=O)n2Cc2ccc(C)cc2)cc1 [Compound I-0871],0.04
20,Cc1ccc(Cn2c(=O)n(C[C@H](C)C(=O)O)c(=O)[nH]/c2=N\c2ccc(CC(C)C)cc2)cc1 [Compound I-0872],0.081

row,SMILES,IC50 [µM]
1,CCCOc1ccc(/N=c2\[nH]c(=O)n(CCCC(=O)O)c(=O)n2Cc2ccc(C)cc2)cc1Cl [Compound I-0873],0.047
2,CCOc1ccc(/N=c2\[nH]c(=O)n(CCCC(=O)O)c(=O)n2Cc2ccc(C)cc2)cc1Cl [Compound I-0874],0.086
3,COC(=O)C[C@@H](C)n1c(=O)[nH]/c(=N\c2ccc(OC(C)C)c(Cl)c2)n(Cc2ccc(C)cc2)c1=O [Compound I-0875],0.014
4,CCOc1ccc(/N=c2\[nH]c(=O)n([C@H](C)CC(=O)OC)c(=O)n2Cc2ccc(C)cc2)cc1Cl [Compound I-0876],0.023
5,CCCOc1ccc(/N=c2\[nH]c(=O)n([C@H](C)CC(=O)OC)c(=O)n2Cc2ccc(C)cc2)cc1Cl [Compound I-0877],0.028
6,Cc1ccc(Cn2c(=O)n([C@H](C)CC(=O)O)c(=O)[nH]/c2=N\c2ccc(OC(C)C)c(Cl)c2)cc1 [Compound I-0878],0.022
7,CCOc1ccc(/N=c2\[nH]c(=O)n([C@H](C)CC(=O)O)c(=O)n2Cc2ccc(C)cc2)cc1Cl [Compound I-0879],0.058
8,CCCOc1ccc(/N=c2\[nH]c(=O)n([C@H](C)CC(=O)O)c(=O)n2Cc2ccc(C)cc2)cc1Cl [Compound I-0880],0.049
9,"CO/N=C/c1ccc(/N=c2\[nH]c(=O)n(C[C@H](C)C(=O)OC)c(=O)n2Cc2ccc(Cl)cc2)cc1F [Compound I-0881, (S)-1-(4-chlorobenzyl)-6-(3-fluoro-4-methoxyiminomethylphenylimino)-3-(2-methoxycarbonylpropyl)-1,3,5-triazinane-2,4-dion]",0.127
10,CCOc1ccc(/N=c2\[nH]c(=O)n(CCC(=O)O)c(=O)n2Cc2ccc(C)cc2)cc1Cl [Compound I-0882],0.1
11,CCCOc1ccc(/N=c2\[nH]c(=O)n(C[C@H](CC)C(=O)OC)c(=O)n2Cc2ccc(C)cc2)cc1 [Compound I-0883],0.024
12,CC[C@@H](Cn1c(=O)[nH]/c(=N\c2ccc(OC(C)C)c(C)c2)n(Cc2ccc(C)cc2)c1=O)C(=O)OC [Compound I-0884],0.016
13,CCCOc1ccc(/N=c2\[nH]c(=O)n(C[C@H](CC)C(=O)O)c(=O)n2Cc2ccc(C)cc2)cc1 [Compound I-0885],0.087
14,CC[C@@H](Cn1c(=O)[nH]/c(=N\c2ccc(OC(C)C)c(C)c2)n(Cc2ccc(C)cc2)c1=O)C(=O)O [Compound I-0886],0.076
15,CC[C@@H](Cn1c(=O)[nH]/c(=N\c2ccc(OC(C)C)c(C)c2)n(Cc2ccc(Cl)cc2)c1=O)C(=O)OC [Compound I-0887],0.023
16,CCCOc1ccc(/N=c2\[nH]c(=O)n(C[C@H](CC)C(=O)OC)c(=O)n2Cc2ccc(Cl)cc2)cc1 [Compound I-0888],0.03
17,CC[C@@H](Cn1c(=O)[nH]/c(=N\c2ccc(OC(C)C)c(C)c2)n(Cc2ccc(Cl)cc2)c1=O)C(=O)O [Compound I-0889],0.053
18,CCCOc1ccc(/N=c2\[nH]c(=O)n(C[C@H](CC)C(=O)O)c(=O)n2Cc2ccc(Cl)cc2)cc1 [Compound I-0890],0.032
19,"C=Cc1ccc(Cn2c(=O)n(C[C@H](C)C(=O)OC)c(=O)[nH]/c2=N\c2ccc(OC(C)C)c(C)c2)cc1 [Compound I-0892, (S)-1-(4-vinylbenzyl)-6-(3-mehyl-4-isopropoxyphenylimino)-3-(2-methoxycarbonylpropyl)-1,3,5-triazinane-2,4-dion]",0.018
20,"CO/N=C/c1ccc(/N=c2\[nH]c(=O)n(C[C@H](C)C(=O)O)c(=O)n2Cc2ccc(Cl)cc2)cc1F [Compound I-0893, (S)-1-(4-chlorobenzyl)-6-(3-fluoro-4-methoxyiminomethylphenylimino)-3-(2-hydroxycarbonylpropyl)methyl-1,3,5-triazinane-2,4-dion]",0.202

# Source: patent US9718790B2, “Triazine derivative and pharmaceutical composition having an analgesic activity comprising the same” (SHIONOGI & CO., LTD., priority 2010, dated 2017)
